Data: patent US12084453B2, “Bicyclic amines as CDK12 inhibitors” (Incyte Corporation, priority 2021, dated 2024)

Target: T1, CDK12 complexed with Cyclin K (Homo sapiens, UniProt Q9NYV4)
T1 construct: GST (N); host or cells: baculovirus expression system
Test: CDK enzymatic assay (HTRF, LANCE Ultra kinase assay)
Type: biochemical
Details: 60 minutes pre-incubation with compound; 1 mM ATP
Protocol: The following activity of the CDK enzymes in complex with their respective cyclins we assayed: CDK1 complexed with Cyclin B1; CDK2 complexed with Cyclin E1; CDK4 complexed with Cyclin D1; CDK6 complexed with Cyclin D1; CDK6 complexed with Cyclin D3; CDK9 complexed with Cyclin T1; CDK7 complexed with Cyclin H/MAT1; CDK2 complexed with Cyclin A2; CDK5 complexed with p35; CDK12 complexed with Cyclin K; CDK13 complexed with Cyclin K. These in vitro enzyme activity are assayed using homogeneous time-resolved energy transfer (HTRF), which measures phosphorylation of a peptide substrate. The LANCE® Ultra kinase assay (PerkinElmer) uses a ULight™-labeled EIF4E-binding protein 1 (THR37/46) peptide (DYSTTPGGTLFSTTPGTRI (SEQ ID NO: 1)) substrate and a Europium-labeled anti-phospho-4E-BP1 antibody (CDK2, CDK1, CDK4, CDK6, CDK9, CDK12, CDK13) or ULight™-labeled Myelin Basic Protein peptide (VTPRTPPP (SEQ ID NO: 2)) substrate and a Europium-labeled anti-phospho-MBP antibody (CDK7). Each CDK enzyme activity assays utilized human CDK co-expressed as N-terminal GST-tagged protein with its full length cyclin partner using a baculovirus expression system.
Enzyme was pre-incubated with compounds for 30 minutes (CDK1,2,4,6,9) or 60 minutes (CDK7, CDK12, CDK13) prior to addition of ATP and Ulight-peptide (1 mM and 50 nM final, respectively), in assay buffer containing 50 mM HEPES pH 7.5, 1 mM EGTA, 10 mM MgCl2, 2 mM DTT, 0.05 mg/mL BSA, and 0.01% Tween 20. The reaction was then incubated for 60-90 minutes at room temperature. The reactions were stopped by the addition of EDTA and Europium labeled antibody, for a final concentration of 15 mM and 1.0-1.5 nM, respectively. HTRF signals were read after 15-120 minutes. A ratio of fluorescence transferred to the labeled substrate (665 nm) relative to fluorescence of the Europium donor (620 nm) represents the extent of phosphorylation. Ratios for treated wells were normalized to DMSO only (100% activity) and no enzyme (0% activity) controls. Normalized data was analyzed using a three or four parameter dose response curve to determine IC50 for each compound and are shown in Table A. Control reference inhibitors were included on each plate.

T1 sequence (Q9NYV4 whole entry): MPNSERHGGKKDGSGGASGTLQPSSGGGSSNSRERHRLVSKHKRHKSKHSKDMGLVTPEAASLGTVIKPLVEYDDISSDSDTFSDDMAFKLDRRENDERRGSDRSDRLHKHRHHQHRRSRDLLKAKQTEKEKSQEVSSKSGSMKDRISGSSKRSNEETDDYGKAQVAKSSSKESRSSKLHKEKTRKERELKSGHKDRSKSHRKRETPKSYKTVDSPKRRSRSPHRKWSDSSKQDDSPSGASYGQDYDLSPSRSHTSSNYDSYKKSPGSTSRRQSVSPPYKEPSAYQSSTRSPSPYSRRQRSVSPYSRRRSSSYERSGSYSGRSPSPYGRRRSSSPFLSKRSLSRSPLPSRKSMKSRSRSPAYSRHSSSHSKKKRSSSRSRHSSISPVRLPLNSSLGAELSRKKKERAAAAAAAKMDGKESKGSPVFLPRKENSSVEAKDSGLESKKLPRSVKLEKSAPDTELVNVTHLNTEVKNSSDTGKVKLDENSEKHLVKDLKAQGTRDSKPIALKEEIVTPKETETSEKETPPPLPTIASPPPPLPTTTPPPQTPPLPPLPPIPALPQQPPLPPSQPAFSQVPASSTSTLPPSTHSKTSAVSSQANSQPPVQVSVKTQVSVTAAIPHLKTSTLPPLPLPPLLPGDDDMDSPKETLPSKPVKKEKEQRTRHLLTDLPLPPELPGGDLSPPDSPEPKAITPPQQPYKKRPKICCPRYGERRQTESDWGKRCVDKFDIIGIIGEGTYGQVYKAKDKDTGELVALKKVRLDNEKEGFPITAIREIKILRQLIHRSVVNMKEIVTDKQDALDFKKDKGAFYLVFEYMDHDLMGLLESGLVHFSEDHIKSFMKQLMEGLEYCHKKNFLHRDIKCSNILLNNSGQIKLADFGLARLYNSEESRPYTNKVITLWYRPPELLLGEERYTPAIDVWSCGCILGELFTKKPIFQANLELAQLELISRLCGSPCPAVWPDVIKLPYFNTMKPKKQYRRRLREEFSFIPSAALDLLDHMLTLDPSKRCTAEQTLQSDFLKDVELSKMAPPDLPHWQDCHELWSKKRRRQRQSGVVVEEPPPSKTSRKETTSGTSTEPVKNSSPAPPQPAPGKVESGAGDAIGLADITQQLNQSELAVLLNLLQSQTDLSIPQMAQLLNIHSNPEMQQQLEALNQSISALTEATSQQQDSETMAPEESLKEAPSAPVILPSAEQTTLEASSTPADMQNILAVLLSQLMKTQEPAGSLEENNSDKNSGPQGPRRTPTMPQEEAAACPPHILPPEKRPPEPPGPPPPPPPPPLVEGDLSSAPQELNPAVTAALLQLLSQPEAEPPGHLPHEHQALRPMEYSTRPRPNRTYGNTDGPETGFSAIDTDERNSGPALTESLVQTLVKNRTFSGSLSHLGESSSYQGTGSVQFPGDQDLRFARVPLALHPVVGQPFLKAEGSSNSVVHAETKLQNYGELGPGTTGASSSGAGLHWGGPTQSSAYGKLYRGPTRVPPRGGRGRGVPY
T1 sequence (O75909 whole entry partner): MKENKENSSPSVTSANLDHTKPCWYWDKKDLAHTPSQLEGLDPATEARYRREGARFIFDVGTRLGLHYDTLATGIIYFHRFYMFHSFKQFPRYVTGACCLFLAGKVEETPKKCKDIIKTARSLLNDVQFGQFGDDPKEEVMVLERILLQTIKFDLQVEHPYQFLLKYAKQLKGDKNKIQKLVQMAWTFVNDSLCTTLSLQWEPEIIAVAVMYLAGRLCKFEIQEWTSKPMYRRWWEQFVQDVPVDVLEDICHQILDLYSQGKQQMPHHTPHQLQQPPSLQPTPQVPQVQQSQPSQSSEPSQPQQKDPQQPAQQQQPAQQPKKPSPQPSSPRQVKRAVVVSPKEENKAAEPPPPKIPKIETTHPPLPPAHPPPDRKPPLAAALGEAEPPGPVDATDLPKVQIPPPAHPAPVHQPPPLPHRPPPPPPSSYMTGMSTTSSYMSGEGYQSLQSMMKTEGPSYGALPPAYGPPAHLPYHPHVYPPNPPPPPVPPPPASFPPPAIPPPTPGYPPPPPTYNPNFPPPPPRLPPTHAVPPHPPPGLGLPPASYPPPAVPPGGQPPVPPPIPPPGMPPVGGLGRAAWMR

Row | SMILES | IC50 [nM]
1 | C=CC(=O)Nc1ccc2c(c1)nc(N1CCC[C@@H](Nc3nc4ccc(-c5cn[nH]c5)c(C(C)C)n4n3)C1)n2C [Example 28, (R)-N-(2-(3-((5-Isopropyl-6-(1H-pyrazol-4-yl)-[1,2,4]triazolo[1,5-a]pyridin-2-yl)amino)piperidin-1-yl)-1-methyl-1H-benzo[d]imidazol-5-yl)acrylamide] | < 50
2 | C=CC(=O)Nc1cnc(N2CCC[C@@H](Nc3nc4ccc(-c5cn[nH]c5)c(C(F)(F)F)n4n3)C2)c(C)c1 [Example 38, (R)-N-(6-(3-((6-(1H-pyrazol-4-yl)-5-(trifluoromethyl)-[1,2,4]triazolo[1,5-a]pyridin-2-yl)amino)piperidin-1-yl)-5-methylpyridin-3-yl)acrylamide] | < 50
3 | C=CC(=O)Nc1ccc2sc(N3CCC[C@@H](Nc4nc5ccc(-c6cn[nH]c6)c(C(F)(F)F)n5n4)C3)nc2c1 [Example 35, (R)-N-(2-(3-((6-(1H-pyrazol-4-yl)-5-(trifluoromethyl)-[1,2,4]triazolo[1,5-a]pyridin-2-yl)amino)piperidin-1-yl)benzo[d]thiazol-5-yl)acrylamide] | < 50
4 | C=CC(=O)Nc1ccc(C(=O)N2CC[C@@H](Nc3nc4ccc(-c5cnco5)cn4n3)C2)cc1 [Example 20, (R)-N-(4-(3-((6-(Oxazol-5-yl)-[1,2,4]triazolo[1,5-a]pyridin-2-yl)amino)pyrrolidine-1-carbonyl)phenyl)acrylamide] | < 50
5 | C=CC(=O)Nc1ccc(C(=O)N2CC[C@@H](Nc3nc4cc(C)c(-c5cn[nH]c5)cn4n3)C2)cc1 [Example 24, (R)-N-(4-(3-((7-Methyl-6-(1H-pyrazol-4-yl)-[1,2,4]triazolo[1,5-a]pyridin-2-yl)amino)pyrrolidine-1-carbonyl)phenyl)acrylamide] | 50 to 500
6 | C=CC(=O)Nc1ccc2c(c1)nc(N1CCC[C@@H](Nc3nc4ccc(-c5cn[nH]c5)c(C(F)(F)F)n4n3)C1)n2C [Example 36, (R)-N-(2-(3-((6-(1H-pyrazol-4-yl)-5-(trifluoromethyl)-[1,2,4]triazolo[1,5-a]pyridin-2-yl)amino)piperidin-1-yl)-1-methyl-1H-benzo[d]imidazol-5-yl)acrylamide] | < 50
7 | C=CC(=O)Nc1ccc(C(=O)N2CC[C@@H](Nc3nc4ccc(-c5cn[nH]c5)c(C(C)C)n4n3)C2)cc1 [Example 18, (R)-N-(4-(3-((5-Isopropyl-6-(1H-pyrazol-4-yl)-[1,2,4]triazolo[1,5-a]pyridin-2-yl)amino)pyrrolidine-1-carbonyl)phenyl)acrylamide] | < 50
8 | C=CC(=O)Nc1ccc(C(=O)N2CCC[C@@H](Nc3nc4ccc(-c5cn[nH]c5)c(N5CCCCC5)n4n3)C2)cc1 [Example 6, (R)-N-(4-(3-((5-(Piperidin-1-yl)-6-(1H-pyrazol-4-yl)-[1,2,4]triazolo[1,5-a]pyridin-2-yl)amino)piperidine-1-carbonyl)phenyl)acrylamide] | < 50
9 | C=CC(=O)Nc1ccc(C(=O)N2CC[C@@H](Nc3nc4ccc(-c5cn[nH]c5)cn4n3)C2)cc1 [Example 11, (R)-N-(4-(3-((6-(1H-Pyrazol-4-yl)-[1,2,4]triazolo[1,5-a]pyridin-2-yl)amino)pyrrolidine-1-carbonyl)phenyl)acrylamide] | < 50
10 | C=CC(=O)Nc1ccc(C(=O)N2CC[C@@H](Nc3nc4ccc(-c5cn[nH]c5)c(C)n4n3)C2)cc1 [Example 12, (R)-N-(4-(3-((5-Methyl-6-(1H-pyrazol-4-yl)-[1,2,4]triazolo[1,5-a]pyridin-2-yl)amino)pyrrolidine-1-carbonyl)phenyl)acrylamide] | < 50
11 | C=CC(=O)Nc1ccc(C(=O)N2CCC[C@@H](Nc3nc4cnc(-c5cn[nH]c5)c(OC5CC(F)(F)C5)n4n3)C2)cc1 [Example 10, (R)-N-(4-(3-((5-(3,3-Difluorocyclobutoxy)-6-(1H-pyrazol-4-yl)-[1,2,4]triazolo[1,5-a]pyrazin-2-yl)amino)piperidine-1-carbonyl)phenyl)acrylamide] | < 50
12 | C=CC(=O)Nc1ccc2c(c1)C(=O)N([C@H]1CCC[C@@H](Nc3nc4ccc(-c5cn[nH]c5)c(C(F)(F)F)n4n3)C1)C2 [Example 34, N-(2-((1S,3R)-3-((6-(1H-pyrazol-4-yl)-5-(trifluoromethyl)-[1,2,4]triazolo[1,5-a]pyridin-2-yl)amino)cyclohexyl)-3-oxoisoindolin-5-yl)acrylamide] | < 50
13 | C=CC(=O)Nc1ccc(C(=O)N2CCC(Nc3nc4c(OC)c(-c5cn[nH]c5)ncn4n3)CC2)cc1 [Example 2, N-(4-(4-((8-Methoxy-7-(1H-pyrazol-4-yl)-[1,2,4]triazolo[1,5-c]pyrimidin-2-yl)amino)piperidine-1-carbonyl)phenyl)acrylamide] | < 50
14 | C=CC(=O)N(C)c1ccc(C(=O)N2CC[C@@H](Nc3nc4ccc(-c5cn[nH]c5)c(C(C)C)n4n3)C2)cc1 [Example 25, (R)-N-(4-(3-((5-Isopropyl-6-(1H-pyrazol-4-yl)-[1,2,4]triazolo[1,5-a]pyridin-2-yl)amino)pyrrolidine-1-carbonyl)phenyl)-N-methylacrylamide] | < 50
